The nature of data set [1]: Genotoxicity in Salmonella typhimurium TA100 at 62.5 to 1000 ug incubated for 48 to 50 hrs in absence of S9 fraction by Ames test. In kind it is toxicity, Salmonella enterica subsp. enterica serovar Typhimurium. Conditions: in vivo; dose 62.5-1000 µg, time 48-50 hrs. Background: The Ames test uses bacterial strains that need an amino acid and regain growth without it when mutated back.

The nature of data set [2]: Genotoxicity in Salmonella typhimurium TA98 at 62.5 to 1000 ug incubated for 48 to 50 hrs in absence of S9 fraction by Ames test. It is filed as toxicity, Salmonella enterica subsp. enterica serovar Typhimurium. The conditions noted are these: in vivo; dose 62.5-1000 µg, time 48-50 hrs.
Data set [3] deals with Mus musculus. Kind of data set: Antianemic activity in cisplatin-induced C57BL/6 mouse anemia model assessed as improvement in anemia at 25 mg/kg, po administered every other day for 1 month. It is filed as functional. Conditions: time 1 months, 730 h.
For data set [4], the system named is Mus musculus. Kind of data set: Antianemic activity in cisplatin-induced C57BL/6 mouse anemia model assessed as improvement in anemia at 10 mg/kg, po administered every other day for 1 month. In kind it is functional. Conditions: time 1 months, 730 h.
A short description of data set [5]: Nephrotoxicity in male Sprague-Dawley rat assessed as effect on total protein level in blood at 15 to 200 mg/kg, iv or po administered every alternate days for 2 weeks measured on day 14. It is filed as toxicity, organism-based. Conditions: in vivo, 336 h, dose 15-200 mg/kg, time 14 day.
Another data set deals with Cytochrome P450 2C9 (Homo sapiens, UniProt P11712). The data set is described as follows: Inhibition of CYP2C9 (unknown origin) using diclofenac as substrate preincubated for 5 mins followed by addition of NADPH measured after 20 mins by LC-MS/MS analysis. In kind it is ADME.
Data set [6] in a line: Half-life in human L02 cells at 100 uM incubated up to 120 mins by LC-MS/MS analysis. It is filed as ADME, cell-based.
A further data set concerns the target T1, Cytochrome P450 1A2 (Homo sapiens, UniProt P05177).
T1 sequence (P05177 whole entry): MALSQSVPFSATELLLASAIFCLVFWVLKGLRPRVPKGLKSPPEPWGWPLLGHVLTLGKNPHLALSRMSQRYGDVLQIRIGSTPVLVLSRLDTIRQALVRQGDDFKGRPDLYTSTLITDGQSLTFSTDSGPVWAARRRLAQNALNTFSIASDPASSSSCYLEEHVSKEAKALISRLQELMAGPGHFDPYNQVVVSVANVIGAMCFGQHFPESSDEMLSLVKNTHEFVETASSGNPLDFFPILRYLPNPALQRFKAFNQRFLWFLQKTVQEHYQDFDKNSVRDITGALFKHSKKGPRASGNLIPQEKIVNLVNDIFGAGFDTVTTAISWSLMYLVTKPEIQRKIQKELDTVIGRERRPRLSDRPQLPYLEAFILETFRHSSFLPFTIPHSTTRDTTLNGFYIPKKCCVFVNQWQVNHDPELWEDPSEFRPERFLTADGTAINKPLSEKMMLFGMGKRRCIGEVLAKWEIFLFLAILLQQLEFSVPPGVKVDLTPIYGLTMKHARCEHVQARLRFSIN
The data set is described as follows: Inhibition of CYP1A2 (unknown origin) using phenacetin as substrate preincubated for 5 mins followed by addition of NADPH measured after 20 mins by LC-MS/MS analysis. It is filed as ADME.

Data set [7] is described as follows: Half-life in mouse hepatocytes at 100 uM incubated up to 120 mins by LC-MS/MS analysis. In kind it is ADME, cell-based, Hepatocyte.
Data set [8] can be described thus: Half-life in monkey liver microsome at 1 uM preincubated for 5 mins followed by NADPH addition measured up to 120 mins by LC-MS/MS analysis. In kind it is ADME, Macaca mulatta. The conditions noted are these: rhesus monkey, liver microsomes, time <=125 min. On the technique in general: Microsomes from liver hold many membrane-bound enzymes, among them those of drug oxidation.

A short description of data set [9]: Half-life in rat liver microsome at 1 uM preincubated for 5 mins followed by NADPH addition measured up to 120 mins by LC-MS/MS analysis. It is filed as ADME. The conditions noted are these: liver microsomes, time <=125 min.
Data set [10] in a line: Clearance in Beagle dog at 0.5 mg/kg, iv by LC-MS/MS analysis. The conditions noted are these: in vivo. It is filed as ADME, organism-based, Canis lupus familiaris.
Data set [11] in a line: Half-life in Beagle dog at 0.5 mg/kg, iv by LC-MS/MS analysis. It is filed as ADME, organism-based, Canis lupus familiaris. The conditions noted are these: in vivo.
Data set [12] is described as follows: Tmax in Beagle dog at 2 mg/kg, ig by LC-MS/MS analysis. It is filed as ADME, organism-based, Canis lupus familiaris. Conditions: in vivo, po.
Data set [13] in a line: Cmax in Beagle dog at 2 mg/kg, ig by LC-MS/MS analysis. Conditions: in vivo, po. Also noted: route […], dose 2 mg/kg. In kind it is ADME, organism-based, Canis lupus familiaris.
A short description of data set [14]: AUC (0 to t) in Sprague-Dawley rat at 1 mg/kg, iv by LC-MS/MS analysis. In kind it is ADME, organism-based. Also noted: dose 1 mg/kg. The conditions noted are these: in vivo.
A short description of data set [15]: Half-life in Sprague-Dawley rat at 2 mg/kg, ig by LC-MS/MS analysis. In kind it is ADME, organism-based. The conditions noted are these: in vivo, po.
The nature of data set [16]: Clearance in Sprague-Dawley rat at 2 mg/kg, ig by LC-MS/MS analysis. It is filed as ADME, organism-based. Conditions: in vivo, po.
Data set [17] concerns Mus musculus. Kind of data set: In vivo inhibition of PHD2 in C57BL/6 mouse assessed as upregulation of EPO plasma level by measuring EPO level at 15 mg/kg, po measured after 4 hrs by ELISA. It is filed as functional, organism-based. Background: An ELISA detects its analyte on a solid surface through an enzyme-linked reagent.
Another data set concerns the target Egl nine homolog 1 (Homo sapiens, UniProt Q9GZT9). The data set is described as follows: Inhibition of PHD2 in human Hep3B cells assessed as upregulation of EPO mRNA expression measured after 10 hrs by Trizol reagent based qRT-PCR analysis. In kind it is cell-based. Conditions: dose microM 5-50, time 10.0 hrs.
A further data set concerns MCF7. The data set is described as follows: Cytotoxicity against human MCF7 cells assessed as reduction in cell viability at 10 to 100 uM incubated for 72 hrs by MTT assay. It is filed as cell-based. Conditions: mcf7, 72 h, dose 10-100 µM.
The species named for a further data set is Homo sapiens. The data set is described as follows: Selectivity index, ratio of IC50 for KDM4A (unknown origin) in presence of peptide substrate incubated for 30 mins by alpha screen assay to IC50 for PHD2 (unknown origin) by O-phenyl enediamine(OPD) based fluorescence assay.

Activity calls are given as the source filed them. The calls are words filed in the database; no cut-off is given here.

Egl nine homolog 1, sequence (Q9GZT9 2-426 limits assumed): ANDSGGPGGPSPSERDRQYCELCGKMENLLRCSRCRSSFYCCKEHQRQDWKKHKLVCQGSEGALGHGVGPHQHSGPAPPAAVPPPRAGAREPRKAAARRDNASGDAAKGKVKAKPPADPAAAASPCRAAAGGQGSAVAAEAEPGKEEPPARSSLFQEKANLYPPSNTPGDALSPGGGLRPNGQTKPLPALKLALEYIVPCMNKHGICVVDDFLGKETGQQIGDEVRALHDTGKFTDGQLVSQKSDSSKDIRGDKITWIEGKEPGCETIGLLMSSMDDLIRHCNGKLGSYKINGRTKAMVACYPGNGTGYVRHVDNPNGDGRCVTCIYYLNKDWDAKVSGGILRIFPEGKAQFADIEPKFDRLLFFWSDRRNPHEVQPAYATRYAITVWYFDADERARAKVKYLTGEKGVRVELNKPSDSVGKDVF
Cytochrome P450 2C9, sequence (P11712 whole entry): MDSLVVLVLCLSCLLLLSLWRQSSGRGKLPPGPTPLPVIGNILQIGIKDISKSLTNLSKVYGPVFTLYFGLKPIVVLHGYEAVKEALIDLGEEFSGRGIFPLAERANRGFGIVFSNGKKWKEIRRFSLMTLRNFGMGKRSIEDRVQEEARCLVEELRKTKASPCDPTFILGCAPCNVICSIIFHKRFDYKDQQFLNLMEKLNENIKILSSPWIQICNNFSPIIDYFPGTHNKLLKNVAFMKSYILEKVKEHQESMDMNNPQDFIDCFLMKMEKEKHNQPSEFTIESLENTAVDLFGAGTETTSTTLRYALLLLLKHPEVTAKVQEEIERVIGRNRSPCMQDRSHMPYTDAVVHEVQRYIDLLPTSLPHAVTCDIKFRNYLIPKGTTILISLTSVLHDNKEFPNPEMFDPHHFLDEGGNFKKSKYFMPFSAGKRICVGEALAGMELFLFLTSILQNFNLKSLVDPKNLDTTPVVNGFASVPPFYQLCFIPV

As for `O=C(O)CNC(=O)c1ncc(C#CCOc2ccc(Cl)cc2)cc1O` [DDO-3055], the Activity entry in data set [1] is listed as “Non-Toxic”; in data set [2], “Non-Toxic”; in the data set with Mus musculus [3] it was 104.5%; in the data set on Mus musculus [4] it was 83.3%; in data set [5], “Non-Toxic”; with MCF7 it was “Non-Toxic”. Besides, the IC50 against Cytochrome P450 2C9 and at Cytochrome P450 1A2 was more than 30 µM each time. For the same compound, the half-life at 100 µM in data set [6] stood at 17.7 h; in [7] it was 8.68 min. Besides, the half-life at 1 µM is more than 1.65 h in data set [8] and more than 1.12 h in data set [9]. In data set [10], the clearance was 13.2 mL/min/kg. Further, the values for the half-life in data set [11] and in data set [15] were 2.91 h and 6.44 h, respectively. Also, the Tmax in [12] was 0.67 h. In data set [13], the highest level (Cmax) was 735 ng/mL. This compound registered an area under the curve AUC(0-t) in data set [14] of 4710 ng·h/mL. This compound also returned an apparent clearance CL/F in data set [16] of 7.3 mL/min/kg. Also, the inhibition entry in the data set with Mus musculus [17] was “Active”. For the same compound, the inhibition entry on Egl nine homolog 1 is “Dose-dependent effect”. Besides, in the data set listed under Homo sapiens, the Ratio IC50 amounted to 1560.

A word on the IC50: it is the concentration that inhibits the measured activity by half. As a reminder, the half-life is how long it takes for the measured level to halve. One may read the clearance as the rate of elimination divided by the concentration. As usually defined, the Tmax is the time from dosing to the highest level. Usually Cmax stands for the peak of the concentration-time curve. What is called AUC(0-t) is exposure summed from dosing to a finite time, without extrapolation to infinity. As a reminder, the CL/F is clearance divided by bioavailability, as obtained after extravascular dosing.

For the origin of these results see ChEMBL document CHEMBL4665751, “Discovery of Clinical Candidate (5-(3-(4-Chlorophenoxy)prop-1-yn-1-yl)-3-hydroxypicolinoyl)glycine, an Orally Bioavailable Prolyl Hydroxylase Inhibitor for the Treatment of Anemia” (J Med Chem, 2020).
